Reference: patent publication US9938316B2, “Selective inhibitors of α2 isoform of Na,K-ATPase and use thereof for reduction of intra-ocular pressure and as cardiotonic agents” (priority 2013, dated 2018)
Read-outs that look alike come from different tables or passages of the source.

Assays:
[1] = system: intra-ocular pressure (IOP) of rabbits; assay: 4-aminopyridine (4AP)-induced ocular hypertension in rabbits; format: in vivo, New Zealand white rabbits
Protocol: Intra-ocular pressure in rabbits was measured using of a “Reichert Model 30™ Pneumatonometer” after anesthetizing the cornea with local anesthetic.
Since the IOP reflects a balance of the inflow and outflow of aqueous humour, reduction of the increased 4AP-induced inflow of aqueous humour by cardiac glycosides should prevent the increase in IOP. Thus, the standard experimental design to test effects of cardiac glycosides involved topical application of the compounds (1 drop in each eye) 30 minutes prior to application of 4AP and measurement of IOP every 30 minutes over five hours. […] Each experiment was done three times, but the figures depict a representative experiment using a different rabbit for each concentration of the cardiac glycoside.
DGlyN or DMe (0.1 or 1 mM) were applied one hour after the first application of 4AP, which was added every two hours.
New Zealand white rabbits (3-3.5 kg) about 1 year old, of either sex, were housed individually in separate cages in animal room conditions on a reversed, 12-hour dark/light cycle. For the experiments the animals were transferred to rabbit restrainers in a quiet and calm atmosphere (FIG. 1). […] Animal care and treatment were subject to the approval of the institutional committee for animal experiments, Weizmann Institute IACUC permission (no 04270911-2).
IOP (mm Hg) of rabbits was measured using a calibrated Pneumatonometer (Model 30, Reichert technologies, FIG. 1). A local anesthetic Oxybuprocaine HCl (0.4%, 25 μl) was applied to each cornea about a minute before IOP measurements. Two baseline IOP readings were taken before topical administration of the CG (or PBS as control) and after half an hour (Zero time). […] At zero time one drop of 4AP (40 mg/ml, 30 μl) or IB-MECA (1 μM, 30 μl) was administered to both eyes of each rabbit IOP measurements were made at different times as indicated in each experiment. In the experiments for which the IOP was elevated for several hours, 4AP was added every […] or IB-MECA every 2 hours. […] In all cases the figures depict the average effect on IOP (i.e for four or six eyes) compared to control ±SEM. […] Significance of differences from the control was calculated by the unpaired Students t-test (p values), p values <0.05 were considered significant. Corneal thickness (μm) was measured using an ultrasonic pachymeter (Sonogage pachometer, Cleveland, USA), before and during the experiment with CG and 4AP treatments. The values represent averages of three independent measurements for each eye.

cornea of rabbits = assay: Pachymetry: corneal thickness and local toxicity after topical cardiac glycosides; format: in vivo, New Zealand white rabbits; conditions: for Corneal thickness: 1 mM
Protocol: Thus, in this study, no change in corneal thickness was detected (Table 3), indicative of lack of local toxic effects. […] Similar results were obtained with CG's applied after IB-MECA.
IOP (mm Hg) of rabbits was measured using a calibrated Pneumatonometer (Model 30, Reichert technologies, FIG. 1). A local anesthetic Oxybuprocaine HCl (0.4%, 25 μl) was applied to each cornea about a minute before IOP measurements. Two baseline IOP readings were taken before topical administration of the CG (or PBS as control) and after half an hour (Zero time). […] At zero time one drop of 4AP (40 mg/ml, 30 μl) or IB-MECA (1 μM, 30 μl) was administered to both eyes of each rabbit IOP measurements were made at different times as indicated in each experiment. In the experiments for which the IOP was elevated for several hours, 4AP was added every 1.5 hours or IB-MECA every 2 hours. […] Each experiment was repeated two or three times with similar results. In all cases the figures depict the average effect on IOP (i.e for four or six eyes) compared to control ±SEM. Where error bars are not seen in the figures, the errors are smaller than the symbols used. Significance of differences from the control was calculated by the unpaired Students t-test (p values), p values <0.05 were considered significant. Corneal thickness (μm) was measured using an ultrasonic pachymeter (Sonogage pachometer, Cleveland, USA), before and during the experiment with CG and 4AP treatments. The values represent averages of three independent measurements for each eye.

[2] = target: Na,K-ATPase α1β1 isoform complex (Homo sapiens, UniProt P05023); assay: biochemical; conditions: α1β1
Protocol: (§1) Methods for transformation, culture of P. pastoris clones, protein expression of Na,K-ATPase human isoforms (α1β1, α2β1, α3β1), membrane preparation, solubilization of membranes in DDM, and purification on BD-Talon beads have been described in detail (6-9, 11, 25). In initial experiments the three purified isoform complexes (0.3-0.5 mg/ml) were eluted from the BD-Talon beads in a solution containing Imidazole 170 mM, NaCl 100 mM; Tricine.HCl 20 mM pH 7.4; C12E8, 0.1 mg/ml; SOPS 0.07 mg/ml cholesterol 0.01 mg/ml, glycerol 25%. In later experiments the isoforms complexes were reconstituted with purified FXYD1 on the BD-Talon beads together as described in detail in (10, 11) prior to elution of α1β1FXYD1, α2β1FXYD1 and α3β1FXYD1 complexes. The proteins were stored at −80° C. Protein concentration was determined with BCA (B9643 Sigma).
(§2) Inhibition of Na,K-ATPase activity of the detergent-soluble α1β1, α2β1, and α3β1 complexes by CG's was determined as described (6) using either the αβ or αβFXYD1 complexes. […] The K0.5K was estimated by varying K concentration in a medium containing a fixed total K+choline chloride of 60 mM, and constant NaCl of 140 mM. Curves were fitted to the Hill function v=Vmax*[S]^n/([S]^n+K^n), where S is the K concentration, n is the Hill coefficient and K^n is K0.5K. For comparison of different curves the ratio v/Vmax for each curve was calculated and replotted. In experiments to assess inhibition of Na,K-ATPase activity by cardiac glycosides of the present invention, the percent inhibition VCG/V0 was calculated and Ki values were obtained by fitting the data to the function VCG/V0=Ki/([CG]+Ki)+ c. Inhibition was estimated in 3-8 separate experiments and average Ki values ±SEM were calculated. Significance of differences between Kiα1 and Kiα2 was calculated by the unpaired Student's t-test (p values). […] P values <0.05 were considered significant.

[3] = target: Na,K-ATPase α2β1 isoform complex (Homo sapiens, UniProt P50993); assay: biochemical; format: biochemical; conditions: α2β1
Protocol: as §1, §2

[4] = system: Na,K-ATPase α2β1 isoform complex; assay: biochemical; format: biochemical, human; conditions: Kiα1β1/Kiα2β1
Protocol: as §1, §2

Row | SMILES | Ki ([2]; Ki ± S.E. α1, Table 2) [nM] | Ki ([3]; Ki ± S.E. α2, Table 2) [nM] | Selectivity ratio Ki α1/α2 ± S.E. [4] | other results
1 | C[C@@H]1O[C@@H](O[C@H]2C[C@@H](O)[C@]3(CO)[C@H]4[C@H](O)C[C@]5(C)[C@@H](C6=CC(=O)OC6)CC[C@]5(O)[C@@H]4CC[C@]3(O)C2)[C@H](O)[C@H](O)[C@H]1O [Ouabain, ouabain, reference compound] |  |  |  | Effect on 4AP-induced rise in IOP ([1]; 1 mM, 1 drop topically 30 minutes prior to 4AP): somewhat reduced IOP; Effect on 4AP-induced rise in IOP ([1]; concentrations lower than 1 mM, topically 30 minutes prior to 4AP): poorly effective; Wash-out time/rate compared with other cardiac glycosides ([1]; equal concentrations, 4AP every two hours): washed out at a rate between that of digoxin and digoxigenin; Corneal thickness (cornea of rabbits; left eye, 0 h): 455 microns; Corneal thickness (cornea of rabbits; left eye, 2 h): 409 microns; Corneal thickness (cornea of rabbits; left eye, 4 h): 422 microns; Corneal thickness (cornea of rabbits; right eye, 0 h): 461 microns; Corneal thickness (cornea of rabbits; right eye, 2 h): 405 microns; Corneal thickness (cornea of rabbits; right eye, 4 h): 414 microns; Corneal thickness (in words) (cornea of rabbits; over 4 hours, after 4AP, Digoxin 1 mM, DGlyN 0.5 mM, DMe 0.5 mM, ouabain 1 mM): not significantly affected; Redness or local irritation in conjunctiva or cornea (cornea of rabbits; topical, after 4AP): neither redness nor local irritation were observed
2 | COC(=O)CN1CCC(OC2C(O)CC(OC3C(O)CC(OC4CCC5(C)C(CCC6C5CC(O)C5(C)C(C7=CC(=O)OC7)CCC65O)C4)OC3C)OC2C)OC(C)C1 (stereo not drawn) [DGlMe] | 540 ± 102 | 128 ± 11 | 4.22 ± 0.88 | 
3 | CC1CN(CC(=O)O)CCC(OC2C(O)CC(OC3C(O)CC(OC4CCC5(C)C(CCC6C5CC(O)C5(C)C(C7=CC(=O)OC7)CCC65O)C4)OC3C)OC2C)O1 (stereo not drawn) [DGly] | 124 ± 8.6 | 25 ± 3.9 | 5.1±0.54 | 
4 | CC1CN(CCN)CCC(OC2C(O)CC(OC3C(O)CC(OC4CCC5(C)C(CCC6C5CC(O)C5(C)C(C7=CC(=O)OC7)CCC65O)C4)OC3C)OC2C)O1 (stereo not drawn) [DEtDA] | 69 ± 10 | 16.7 ± 2.1 | 4.10 ± 0.82 | 
5 | C[C@]12CC[C@H](O)C[C@H]1CC[C@@H]1[C@@H]2C[C@@H](O)[C@]2(C)[C@@H](C3=CC(=O)OC3)CC[C@]12O [Digoxigenin, digoxigenin, reference compound] | 139 ± 17 | 130 ± 13.5 |  | Time IOP is maintained at the low level ([1]; 1 mM, single drop, 4AP every two hours): about 2 hours
6 | CC1CN(O)CCC(OC2C(O)CC(OC3C(O)CC(OC4CCC5(C)C(CCC6C5CC(O)C5(C)C(C7=CC(=O)OC7)CCC65O)C4)OC3C)OC2C)O1 (stereo not drawn) [DOH] | 311 ± 18.5 | 134 ± 35 | 2.32 ± 0.62 | 
7 | CC1CN(NC(N)=O)CCC(OC2C(O)CC(OC3C(O)CC(OC4CCC5(C)C(CCC6C5CC(O)C5(C)C(C7=CC(=O)OC7)CCC65O)C4)OC3C)OC2C)O1 (stereo not drawn) [DSCar] | 102 ± 23 | 20 ± 3.6 | 4.98±1.2 | 
8 | C[C@H]1O[C@@H](O[C@H]2[C@@H](O)C[C@H](O[C@H]3CC[C@@]4(C)[C@H](CC[C@@H]5[C@@H]4C[C@@H](O)[C@]4(C)[C@@H](C6=CC(=O)OC6)CC[C@]54O)C3)O[C@@H]2C)C[C@H](O)[C@@H]1O [Dbis, digoxigenin bis digitoxide, reference compound] |  |  | 2.65 ± 0.81 | Ki ([2]; Table 2, read-out: Ki ± S.E. α1): 196 ± 8.5 nM; Ki ([3]; Table 2, read-out: Ki ± S.E. α2): 74 ± 5 nM
9 | CC1CN(CCC(N)=O)CCC(OC2C(O)CC(OC3C(O)CC(OC4CCC5(C)C(CCC6C5CC(O)C5(C)C(C7=CC(=O)OC7)CCC65O)C4)OC3C)OC2C)O1 (stereo not drawn) [DPrN] | 249 ± 37 | 47 ± 7.8 | 5.28±0.75 | 
10 | CC1CN(C(CO)C(N)=O)CCC(OC2C(O)CC(OC3C(O)CC(OC4CCC5(C)C(CCC6C5CC(O)C5(C)C(C7=CC(=O)OC7)CCC65O)C4)OC3C)OC2C)O1 (stereo not drawn) [DSerN] | 242 ± 15 | 144 ± 3.5 | 1.68 ± 0.13 | 
11 | CC1CN(C(CO)C(=O)O)CCC(OC2C(O)CC(OC3C(O)CC(OC4CCC5(C)C(CCC6C5CC(O)C5(C)C(C7=CC(=O)OC7)CCC65O)C4)OC3C)OC2C)O1 (stereo not drawn) [DSer] | 316 ± 109 | 145 ± 28.5 | 2.18 ± 0.86 | 
12 | CC1CN(CC(=O)O)CCC(OC2C(O)CC(OC3CCC4(C)C(CCC5C4CC(O)C4(C)C(C6=CC(=O)OC6)CCC54O)C3)OC2C)O1 (stereo not drawn) [DbisGly] | 80 ± 5.5 | 34.9 ± 12 | 2.29 ± 0.80 | 
13 | Nc1ccncc1 [4AP, 4-aminopyridine, reference compound] |  |  |  | Rise of IOP ([1]; one or two drops (40 mg/ml) in each eye): 3-6 mm Hg
14 | CC1CN(C(C)C(N)=O)CCC(OC2C(O)CC(OC3C(O)CC(OC4CCC5(C)C(CCC6C5CC(O)C5(C)C(C7=CC(=O)OC7)CCC65O)C4)OC3C)OC2C)O1 (stereo not drawn) [DAlaN] | 232 ± 28 | 67 ± 8.1 | 3.46 ± 0.59 | 
